Toxic doses and inconclusive results are not listed. How the source made its calls: active means survival T/C of 150% or more; inactive means T/C below 125% in these data.
Test system: CD2F1 mice, ip Colon 26 adenocarcinoma, median survival T/C
Experiment: NCI In Vivo Anticancer Drug Screen. Data for tumor model Colon 26 Adenocarcinoma (intraperitoneal) in CD2F1 (CDF1) mice
Conditions: endpoint: median survival time, higher = longer survival
Protocol: The antitumor activity of compounds was measured in mice bearing transplantable tumors. Survival or tumor size were measured and the results are expressed as the measurement made in the treated group (T) divided by the measurement made in the vehicle treated control group (C). The tumor model used in this assay is Colon 26 Adenocarcinoma (intraperitoneal) in CD2F1 (CDF1) mice

[1] = dose: 40.0 mg/kg/injection, schedule: Q04DX003 (ip), vehicle: saline
[2] = dose: 100.0 mg/kg/injection, schedule: Q04DX003 (ip), vehicle: saline
[3] = dose: 8.0 mg/kg/injection, schedule: Q01DX009 (ip), vehicle: acid diluted with saline
[4] = dose: 16.0 mg/kg/injection, schedule: Q01DX009 (ip), vehicle: acid diluted with saline

Measured: T/C

CN(C)CCCNc1c2ccccc2nc2cccc([N+](=O)[O-])c12
inactive: dose: 0.02 mg/kg/injection, schedule: Q07DX002 (iv), vehicle: saline with Tween-80 105 % of control | dose: 0.04 mg/kg/injection, schedule: Q07DX002 (iv), vehicle: saline with Tween-80 107 % of control | dose: 0.07 mg/kg/injection, schedule: Q07DX002 (iv), vehicle: saline with Tween-80 108 % of control | dose: 0.12 mg/kg/injection, schedule: Q07DX002 (iv), vehicle: saline with Tween-80 106 % of control | dose: 0.3 mg/kg/injection, schedule: Q07DX002 (iv), vehicle: saline with Tween-80 101 % of control | dose: 0.46 mg/kg/injection, schedule: Q07DX002 (iv), vehicle: saline with Tween-80 100 % of control

O=c1[nH]cc(F)c(=O)[nH]1
inactive: dose: 28.8 mg/kg/injection, schedule: Q04DX003 (sc), vehicle: other 120 % of control | dose: 80.0 mg/kg/injection, schedule: Q04DX003 (ip), vehicle: saline 95 % of control | [2] 79 % of control | dose: 160.0 mg/kg/injection, schedule: Q04DX003 (ip), vehicle: saline 74 % of control
active: dose: 36.0 mg/kg/injection, schedule: Q04DX003 (ip), vehicle: saline 175 % of control | [1] 186 % of control | dose: 60.0 mg/kg/injection, schedule: Q04DX003 (ip), vehicle: saline 164 % of control | dose: 70.0 mg/kg/injection, schedule: Q07DX003 (ip), vehicle: saline 152 % of control | dose: 100.0 mg/kg/injection, schedule: Q07DX003 (ip), vehicle: saline 165 % of control | dose: 140.0 mg/kg/injection, schedule: Q07DX003 (ip), vehicle: saline 150 % of control

O=C1c2ccccc2C(=O)c2c(NCCNCCNCCO)ccc(NCCNCCNCCO)c21
inactive: [3] 102 % of control | [4] 97 % of control | dose: 32.0 mg/kg/injection, schedule: Q01DX009 (ip), vehicle: acid diluted with saline 107 % of control | dose: 64.0 mg/kg/injection, schedule: Q01DX009 (ip), vehicle: acid diluted with saline 103 % of control | dose: 128.0 mg/kg/injection, schedule: Q01DX009 (ip), vehicle: acid diluted with saline 87 % of control

N=C(N)SCc1c2ccccc2c(CSC(=N)N)c2ccccc12
active: dose: 12.5 mg/kg/injection, schedule: Q04DX003 (ip), vehicle: saline 241 % of control | dose: 25.0 mg/kg/injection, schedule: Q04DX003 (ip), vehicle: saline 186 % of control | dose: 50.0 mg/kg/injection, schedule: Q04DX003 (ip), vehicle: saline 248 % of control | [2] 216 % of control | dose: 200.0 mg/kg/injection, schedule: Q04DX003 (ip), vehicle: saline 197 % of control

N=c1ccn2c(n1)OC1C(O)C(CO)OC12 (centres undefined)
inactive: dose: 111.0 mg/kg/injection, schedule: Q01DX009 (ip), vehicle: saline with Tween-80 110 % of control | dose: 167.0 mg/kg/injection, schedule: Q01DX009 (ip), vehicle: saline with Tween-80 115 % of control | dose: 250.0 mg/kg/injection, schedule: Q01DX009 (ip), vehicle: saline with Tween-80 121 % of control

CC[C@H](CC[C@@H](C)[C@H]1CC[C@H]2[C@@H]3CC=C4C[C@@H](OC(C)=O)CC[C@]4(C)[C@H]3CC[C@]12C)C(C)C
inactive: dose: 25.0 mg/kg/injection, schedule: Q04DX002 (ip), vehicle: Klucel (hydroxypropylcellulose) (HPC) 88 % of control | dose: 50.0 mg/kg/injection, schedule: Q04DX002 (ip), vehicle: Klucel (hydroxypropylcellulose) (HPC) 92 % of control | dose: 100.0 mg/kg/injection, schedule: Q04DX002 (ip), vehicle: Klucel (hydroxypropylcellulose) (HPC) 102 % of control | dose: 200.0 mg/kg/injection, schedule: Q04DX002 (ip), vehicle: Klucel (hydroxypropylcellulose) (HPC) 90 % of control | dose: 400.0 mg/kg/injection, schedule: Q04DX002 (ip), vehicle: Klucel (hydroxypropylcellulose) (HPC) 97 % of control

CC(C)NC(=O)OCc1c(COC(=O)NC(C)C)c(-c2ccc(Cl)c(Cl)c2)n2c1CCC2
active: dose: 2.5 mg/kg/injection, schedule: Q01DX009 (ip), vehicle: distilled water + Tween-80 173 % of control | dose: 5.0 mg/kg/injection, schedule: Q01DX009 (ip), vehicle: distilled water + Tween-80 162 % of control | dose: 10.0 mg/kg/injection, schedule: Q01DX009 (ip), vehicle: distilled water + Tween-80 232 % of control | dose: 20.0 mg/kg/injection, schedule: Q01DX009 (ip), vehicle: distilled water + Tween-80 289 % of control | dose: 40.0 mg/kg/injection, schedule: Q01DX009 (ip), vehicle: distilled water + Tween-80 163 % of control

O=C1c2ccccc2C(=O)c2c(NCCNCCO)ccc(O)c21
active: dose: 1.88 mg/kg/injection, schedule: Q01DX009 (ip), vehicle: acid diluted with saline 162 % of control | dose: 2.0 mg/kg/injection, schedule: Q01DX009 (ip), vehicle: acid diluted with saline 152 % of control | dose: 3.75 mg/kg/injection, schedule: Q01DX009 (ip), vehicle: acid diluted with saline 177 % of control | dose: 4.0 mg/kg/injection, schedule: Q01DX009 (ip), vehicle: acid diluted with saline 212 % of control | dose: 7.5 mg/kg/injection, schedule: Q01DX009 (ip), vehicle: acid diluted with saline 196 % of control | [3] 245 % of control | dose: 15.0 mg/kg/injection, schedule: Q01DX009 (ip), vehicle: acid diluted with saline 182 % of control | [4] 263 % of control

CCc1ncnc2cc(OCC3CO3)c(OC)cc12 (centres undefined)
inactive: dose: 25.0 mg/kg/injection, schedule: Q03DX002 (iv), vehicle: saline 90 % of control | dose: 40.0 mg/kg/injection, schedule: Q03DX002 (ip), vehicle: saline 97 % of control | dose: 40.0 mg/kg/injection, schedule: Q03DX002 (sc), vehicle: saline 86 % of control | dose: 60.0 mg/kg/injection, schedule: Q03DX002 (ip), vehicle: saline 114 % of control | dose: 60.0 mg/kg/injection, schedule: Q03DX002 (iv), vehicle: saline 95 % of control | dose: 60.0 mg/kg/injection, schedule: Q03DX002 (sc), vehicle: saline 86 % of control

CCC1(O)CC2CN(CCc3c([nH]c4ccccc34)C(C(=O)OC)(c3cc4c(cc3OC)N(C)C3C(O)(C(N)=O)C(O)C5(CC)C=CCN6CCC43C65)C2)C1 (centres undefined) (tested in a mixture with another compound)
inactive: dose: 0.13 mg/kg/injection, schedule: Q04DX002 (ip), vehicle: water 101 % of control | dose: 0.25 mg/kg/injection, schedule: Q04DX002 (ip), vehicle: water 103 % of control | dose: 0.5 mg/kg/injection, schedule: Q04DX002 (ip), vehicle: water 104 % of control | dose: 1.0 mg/kg/injection, schedule: Q04DX002 (ip), vehicle: water 113 % of control | dose: 2.0 mg/kg/injection, schedule: Q04DX002 (ip), vehicle: water 118 % of control

O=c1oc2cc(N=Cc3ccccc3Cl)ccc2c2ccccc12
inactive: dose: 50.0 mg/kg/injection, schedule: Q04DX003 (ip), vehicle: Klucel (hydroxypropylcellulose) (HPC) 100 % of control | dose: 100.0 mg/kg/injection, schedule: Q04DX003 (ip), vehicle: Klucel (hydroxypropylcellulose) (HPC) 97 % of control | dose: 200.0 mg/kg/injection, schedule: Q04DX003 (ip), vehicle: Klucel (hydroxypropylcellulose) (HPC) 98 % of control | dose: 400.0 mg/kg/injection, schedule: Q04DX003 (ip), vehicle: Klucel (hydroxypropylcellulose) (HPC) 98 % of control

CN(C)CCCNc1ccc(NCCCN(C)C)c2c1C(=O)c1ccccc1C2=O
inactive: dose: 4.0 mg/kg/injection, schedule: Q01DX009 (ip), vehicle: saline 101 % of control | dose: 8.0 mg/kg/injection, schedule: Q01DX009 (ip), vehicle: saline 106 % of control | dose: 16.0 mg/kg/injection, schedule: Q01DX009 (ip), vehicle: saline 100 % of control | dose: 32.0 mg/kg/injection, schedule: Q01DX009 (ip), vehicle: saline 97 % of control

CCC1CN2C(=N1)c1ccccc1-c1cc(Cl)ccc12 (centres undefined)
inactive: dose: 2.5 mg/kg/injection, schedule: Q04DX003 (ip), vehicle: saline 102 % of control | dose: 2.5 mg/kg/injection, schedule: Q04DX003 (ip), vehicle: suspension in saline 107 % of control | dose: 5.0 mg/kg/injection, schedule: Q04DX003 (ip), vehicle: saline 111 % of control | dose: 5.0 mg/kg/injection, schedule: Q04DX003 (ip), vehicle: suspension in saline 101 % of control | dose: 10.0 mg/kg/injection, schedule: Q04DX003 (ip), vehicle: saline 92 % of control | dose: 10.0 mg/kg/injection, schedule: Q04DX003 (ip), vehicle: suspension in saline 106 % of control | [1] 121 % of control | dose: 40.0 mg/kg/injection, schedule: Q04DX003 (ip), vehicle: suspension in saline 124 % of control

Reference: PubChem BioAssay AID210 (DTP/NCI, 2004)
